Laboratory results as given in patent US5906922A, “Delivery of nucleic acids” (Commonwealth Scientific and Industrial Research Organisation, priority 1994, dated 1999).
Where a SMILES comes first, the peptide text is derived from it. The star is where a group is joined. NHC(CH2O-Palmitoyl)3 = CCCCCCCCCCCCCCCC(=O)OCC(COC(=O)CCCCCCCCCCCCCCC)(COC(=O)CCCCCCCCCCCCCCC)N*; X4 = CCCCCCCCCCCC(=O)OCC(CO)(COC(=O)CCCCCCCCCCC)N*; X1 = CCCCCCCCCCCCCCCC(=O)OCC(CO)(CO)N*; NHC(CH2OH)3 = OCC(CO)(CO)N*

Experiments:
CHO cells = assay: Transfection of pSVLCAT, CAT assay, CHO; type: cell-based, Chinese Hamster; settings: for Transfection (CAT): Table 1, CHO, optimised level of agent
Description: Protocol was the same for Verafectin and Transfectam (see above) with the exception that 0.5 μg of pSVLCAT DNA was used /60 mm dish.
Lipofectamine protocol was according to manufacturer's instructions. 0.5 μg pSVLCAT/60 mm dish. CHO cells seeded 1×10^5 /60 mm dish and adhered overnight in DME/Hams medium with 10% FCS.
Transfectam 5 or 10 μl 1mg/400 μl stock solution.
Lipofectamine 5 or 10 μl 2 mg/ml (mixed formulation 3:1 with DOPE). VerafectinA3 (K3ATP3) and VerafectinG2 (K3G[Glycine]TP2) each at 5, 10 and 15 μl of 2 mM (2.8 and 2.3 mg/ml respectively) stock.
The serum free incubation period in the presence of test agents and DNA was 6 hours, then 1 ml DME/Hams+10% FCS was added. At 24 hrs the medium was changed to 2 ml of fresh DME/Hams+10% FCS until harvest at 48 hrs.
(§1) Cell lines Cos 1 or CHO were transfected with 0.5 μg of pSVLCAT or 2 μg of pPGKlacZ plasmid using a range of concentrations of each transfection compound. The optimal concentration of compound, that is the concentration giving the highest level of CAT at 48 hours or the greatest percentage of lac z (β-galactosidase) staining cells at 24 hours was used to collate data for Table 1. As all compounds were not tested in a single experiment, absolute figures indicating transfection were not used. Rather, symbols are used to indicate the transfection efficiency relative to Lipofectamine (BRL), which was included as a control in all experiments. Table 1 thus indicates the relative efficiencies of a number of compounds in mediating the transfection of at least one cell type.
(§2) All test lipopeptide reagents were originally dissolved at 10 mM in 75% DMSO, and subsequently diluted with water to make a 2 mM stock stored at 4° C. Volumes of 2 mM stock lipopeptide ranging from 2 μl to 15 μl were diluted in 500 μl of DDME. 1 μg of plasmid pSVLCAT was separately diluted in 500 μl of DDME. Solutions were combined for 10-20 min at room temperature before adding to 500 μl of DDME in 60 mm dishes of subconfluent CHO cells (2×10^5 day-1) or Cos 1 cells (5×10^5 day-1); washed free of serum with DDME.
(§3) Cells were incubated for 6 hrs under standard conditions of 37° C. and 5% CO2 for 6 hours. 1.5 ml of DME/Hams+10% FCS (CHO) or DME+10% FCS (Cos 1) was added to the cells for overnight incubation. Fresh DME/Hams+10% FCS or DME+10% FCS was used to replace the medium for a further 24 hours prior to harvest. Cell lysates were prepared and assayed for CAT activity as described above. For Cos 1 cells, culture supernatants were assayed for CAT activity.
a. Using the standard transfection procedure described above, and 1 μg plasmid pSVLCAT, these formulations were tested on CHO cells at a single concentration equivalent to 10 μl of Verafectin A2 (2 mM) per sample and compared to unformulated compound and Lipofectamine in the same cell type. CAT production was assayed 48 hours after transfection.

Cos 1 cells [1] = assay: Transfection of pSVLCAT, CAT assay, Cos 1; type: cell-based, African Green Monkey; settings: for Transfection (CAT): Table 1, Cos 1, optimised level of agent
Description: To test the transfection properties of the lead compound K3ATP3 (VerafectinA3), whole uncut plasmid carrying the gene encoding CAT (chloramphenicol acetyl transferase) under the control of the SV40 late promoter, pSVLCAT (Cameron, F. H. and Jennings, P. A. (1989) PNAS 86, 9139-9143) was mixed with the test agent and put on Cos 1 cells under various conditions. After 48 hours of culture the level of secreted CAT was assayed from the culture medium.
Solution I: 1 μg Plasmid DNA in 500 μl Dulbeccos Modified Eagles Medium (DME)
Solution II: 0-20 μl VerafectinA3 (2.5 mg/ml 25% DMSO) in 500 μl DME, Vortex
Combine solution I and II, vortex briefly and incubate at room temperature for 10 min.
Add mix to washed cells in 60 mm tissue culture dishes (seeded 0.5×10^6 /dish previous day) for 6 hrs at 37° C., 5% C02. Add 2 ml DME+10% FCS for remainder of 48 hrs. Assay CAT levels in tissue culture medium (Sleigh, M. J. (1986) Anal. Biochem. 156.251-256).
a--Compare VerafectinA3 dissolved in DMSO or ethanol.
b--Compare VerafectinA3 on cells 6 hrs to overnight. VerafectinA3 at 10 mg/ml in 100% solvent was diluted to 2.5 mg/ml with water.
Transfection was carried out as for experiment 1. VerafectinA3 was left in contact with the cells for varying times.
Protocol was the same for the Verafectins as described above. Lipofectamine protocol was according to manufacturers instructions. Cos 1 cells were seeded at 5×10^5 /60 mm dish and adhered overnight in DME with 10% FCS.
Solution A: 0.5 μg pSVLCAT/60 mm dish.
Solution B: Lipofectamine 10 and 15 μl 2 mg/ml (mixed formulation 3:1 with DOPE).
OR; VerafectinA3 and VerafectinG2 20 μl 2 mM (2.8 and 2.3 mg/ml respectively) stock.
OR; VerafectinG2 was also tested with an equimolar amount of DOPE. VerafectinG2 and DOPE were mixed in DDME and vortexed for 30 seconds before use. Solutions A and B were combined before overlaying on washed cells.
The serum free incubation period in the presence of test agents and DNA was 6 hrs, then 1 ml DME+10% FCS was added. At 24 hours medium was changed to 2 ml fresh DME+10% FCS until harvest at 48 hrs.
as §1, §2, §3
For transfection of pSVLCAT and subsequent assay of CAT enzyme, experiments "a" and "b" were carried out as described above.

Cos 1 cells [2] = type: cell-based, African Green Monkey
Description: Relative levels of cytotoxicity were also assayed in subsequent experiments using the dye MTS, marketed as Cell titre 96 Aqueous (Promega).
(§4) The ratio of [lipid]/[DNA] at which that maximum was achieved is shown. Experiments shown were carried out in Cos 1 cells, as described above. MTS OD is a measure of relative viabilility of the cells exposed to the different agents, a higher value indicates greater cell viability. * These points were taken from a separate experiment and some slight variation between absolute numbers should be expected between experiments.
(§5) The ratio of [lipid]/[DNA] at which that maximum was achieved is shown in brackets for the two different cell types in the following order; (Cos 1) (CHO). Experiments shown were carried out in Cos 1 cells, as described above. Viability was measured with the dye alamar blue . # Denotes compounds tested in a separate experiment. * Viability in this experiment was determined with MTS. OD is a measure of relative viability of the cells exposed to the different agents, and as with alamar blue, a higher value indicates greater cell viability.

Cos 1 cells [3] = assay: β-gal microtitre plate transfection assay, Cos 1; type: cell-based, African Green Monkey; settings: for units β-gal: Table 2, Cos 1, highest reading of 72 conditions
Text: For experiment "c", a plasmid pPGKlaczNLS encoding β-galactosidase under the control of the mouse PGK promoter (kind gift from G.Hannan) or pSVGAL which utilises the SV40 early promoter (Sleigh, M. J. and Lockett, T. J. (1985). EMBO J. 4:3831-3837),was transfected. This experiment and assay were modified from Feigner et al J. Biol Chem. 269(4) 2550-2561 1994. This protocol allows the simultaneous assessment of 72 different combinations and concentrations of DNA and test agent in a microtitre tray. […] Cytotoxicity was assessed using alamar blue, and a sample graph is shown for experiment a.
Compounds were tested for their ability to transfect either the CAT or β-gal gene carried on plasmids, and assayed as described above.
as §4
Each of these compounds was tested for transfection ability and cytotoxicity on standard cell lines using standard conditions as described above.
as §5

For `CCCCCCCCCCCCCCCC(=O)OCC(CO)(COC(=O)CCCCCCCCCCCCCCC)NC(=O)[C@H](C)NC(=O)[C@H](CCCCN)NC(=O)[C@H](CCCCN)NC(=O)[C@@H](N)CCCCN` [K3ATP2, trilysine alanine tris dipalmitate], the “CAT levels relative to Lipofectamine, non-liposome formulation” value (CHO cells; CHO, unformulated) was “around 5%”, the “CAT activity (mean)” value (CHO cells; R1-R4 experiment e, CHO) was 984 cpm and the “Transfection (CAT)” value (CHO cells) was “+/-”. For the same compound, the “Transfection (CAT)” value (Cos 1 cells [1]) was “+/-”.
`CCCCCCCCCCCC(=O)OCC(CO)(COC(=O)CCCCCCCCCCC)NC(=O)[C@H](C)NC(=O)[C@H](CCCCN)NC(=O)[C@H](CCCCN)NC(=O)[C@@H](N)CCCCN` [K3ATL2] (H-KKKA-X4) was tested, and the “MTS OD490-655” value (Cos 1 cells [2]) was 1.554, the “Viability (Cos 1)” value (Cos 1 cells [2]) was 1.55 and the “ratio [lipid]/[DNA] at which maximum was achieved” value (“ratio [lipid]/[DNA]” below) (Cos 1 cells [3]; Table 2, Cos 1) was 0.69. For the same compound, the “units β-gal” value (Cos 1 cells [3]) was 1.06 × 10^-5 units, the “ratio [lipid]/[DNA]” value (Cos 1 cells [3]; Table 3, Cos 1) was “.69” and the “β-gal (Cos 1)” value (Cos 1 cells [3]; Table 3, Cos 1, highest reading of 72 conditions) was 1.06 × 10^-5.
In the case of `CCCCCCCCCCCCCC(=O)OCC(COC(=O)CCCCCCCCCCCCC)(COC(=O)CCCCCCCCCCCCC)NC(=O)[C@H](C)NC(=O)[C@H](CCCCN)NC(=O)[C@H](CCCCN)NC(=O)[C@@H](N)CCCCN` [K3ATM3], the “MTS OD490-655” value (Cos 1 cells [2]) was 1.22, the “Viability (Cos 1)” value (Cos 1 cells [2]) was 1.22 and the “ratio [lipid]/[DNA]” value (Cos 1 cells [3]; Table 2, Cos 1) was 1.39. The “units β-gal” value (Cos 1 cells [3]) was 2.86 × 10^-4 units, the “ratio [lipid]/[DNA]” value (Cos 1 cells [3]; Table 3, Cos 1) was 1.39 and the “β-gal (Cos 1)” value (Cos 1 cells [3]; Table 3, Cos 1, # tested in a separate experiment) was 2.86 × 10^-4.
With `CCCCCCCCCCCCCCCC(=O)OCC(COC(=O)CCCCCCCCCCCCCCC)(COC(=O)CCCCCCCCCCCCCCC)NC(=O)[C@H](C)NC(=O)[C@H](CCCCN)NC(=O)[C@H](CCCCN)NC(=O)[C@H](CCCCN)NC(=O)[C@H](CCCCN)NC(=O)[C@@H](N)CCCCN` [K5ATP3] (H-KKKKKA-{NHC(CH2O-Palmitoyl)3}) the “CAT activity (mean)” value (CHO cells; "x" peptide experiment a, CHO, 25 μl lysate, 20 min assay at 37° C., optimal level) was 1785 cpm and the “mean level of CAT activity” value (CHO cells; "x" peptide experiment c, CHO, 2 hours incubation of 20 μl lysate) was 6363.
For `CCCCCCCCCCCCCCCC(=O)OCC(COC(=O)CCCCCCCCCCCCCCC)(COC(=O)CCCCCCCCCCCCCCC)NC(=O)[C@H](C)NC(=O)[C@H](CCCCN)NC(=O)[C@@H](N)CCCCN` [K2ATP3], the “transfection, number of palmitates” value (Cos 1 cells [1]; R1-R4 experiment a, Cos 1, K2 A linker) was “high levels of transfection”.
In the case of `NCCCC[C@H](NC(=O)[C@H](CCCCN)NC(=O)[C@@H](N)CCCCN)C(=O)NCC(=O)NC(CO)(CO)CO` [K3GTP0] (H-KKKG-{NHC(CH2OH)3}), the “Transfection (CAT)” value (Cos 1 cells [1]) was “-”.
In the case of `CCCCCCCCCCCCCCCC(=O)OCC(CO)(CO)NC(=O)CNC(=O)[C@H](CCCCN)NC(=O)[C@H](CCCCN)NC(=O)[C@@H](N)CCCCN` [K3GTP1] (H-KKKG-X1), the “Transfection (CAT)” value (CHO cells) was “+” and the “Transfection (CAT)” value (Cos 1 cells [1]) was “+”.
